Measured values reported in patent US12090164B2, “Genotype-agnostic rescue of cystic fibrosis with small molecule bicarbonate channels” (The Board of Trustees of the University of Illinois, priority 2017, dated 2024).
“Also recorded” adds a separate entry of the source.

How the values were obtained:
[1] = tested on: CuFi-1 (ΔF508/ΔF508) epithelia; test: ASL pH in cultured CF airway epithelia (SNARF-dextran); type: cell-based, human
Procedure: (§1) Small diameter NuLi, CuFi, and primary cultured epithelia were used for this experiment (0.33 cm^2). The ratiometric pH indicator SNARF-conjugated dextran (Molecular Probes) was used to measure ASL pH. SNARF powder was suspended via sonication in perfluorocarbon (FC-72, Sigma) and distributed onto the apical surface. ASL pH was measured 2 hr later (3, 4, 25). SNARF was excited at 488 nm and emission was recorded at 580 nm and 640 nm using a Zeiss LSM 800 microscope at 40× water immersion for cell line cultures and a Zeiss LSM 510 microscope for primary cultures. To generate a standard curve for pH determination, SNARF was dissolved in colorless pH standards and fluorescence ratios were converted to pH.
(§2) Agents tested in this assay were first lyophilized into powder and then suspended in the appropriate volume of perfluorocarbon (FC-72, Sigma) and sonicated for 1 minute to suspend. AmBisome should not be sonicated; instead, the fine powder was suspended by vortexing.
(§3) In all experiments, ASL pH of compound-treated epithelia was measured compared the results to vehicle-treated epithelia.
(§4) For apical AmB administration, cultured airway epithelia were incubated for 30 min-48 hrs at 37° C. before measurement of ASL pH. For AmB-cholesterol complex and C35deOAmB administration, cultured airway epithelia were incubated for 48 hrs at 37° C. before measurement of ASL pH. To test the effect of […] ATPase inhibition, AmB was administered 47 hours prior to 10 mM ouabain addition, and cultured airway epithelia were incubated for an additional 1 hr at 37° C. before measurement of ASL pH. For 10 μM ivacaftor/10 μM forskolin administration, cultured airway epithelia were incubated for 2 hrs at 37° C. before measurement of ASL pH (25). For basolateral AmB administration, a 2 mM stock of AmB in DMSO was diluted 1000-fold to a final concentration of 2 μM in USG media. The basolateral media of cultured airway epithelia was replaced with the AmB-containing USG media and incubated for 48 hrs at 37° C. before measurement of ASL pH.

[2] = tested on: CuFi-4 (G551D/ΔF508) epithelia; test: as above; type: cell-based, human
Procedure: as §1, §2, §3, §4

CuFi-1 epithelia = test: Transepithelial electrical resistance (Rt); type: cell-based, human; conditions: vehicle, 2 uM or 50 uM AmB, extended timeframes
Procedure: Small diameter CuFi-1 cultured epithelia were used for this experiment (0.33 cm^2) Cultured epithelia were treated with FC-72 vehicle, 2 and 50 μM AmB administered in perfluorocarbon (FC-72, Sigma) for 48 hours, 7 days, or 28 days. 200 μL of fresh USG media was placed on the apical side of the epithelia. Transepithelial electrical resistance (Rt) was then measured using a Millicell® ERS-2 Voltohmmeter across the apical and basolateral sides of the epithelia in a snaking pattern for two technical replicates per biological replicate.

[3] = tested on: CuFi-1 (ΔF508/ΔF508) epithelia; test: ASL cation concentrations by ICP-MS; type: cell-based, human; conditions: AmB 2 μM, 48 h, vs FC-72 vehicle
Procedure: Small diameter CuFi-1 cultured epithelia were used for this experiment (0.33 cm^2). 24 hours prior to the start of experiment, the apical side of all cultured epithelia was rinsed three times with 200 μL warm PBS to remove excess mucus. Fresh USG media was added to the basolateral membrane. CuFi-1 epithelia were treated with either perfluorocarbon (FC-72) vehicle or 2 μM AmB suspended in FC-72, and incubated at 37° C. for 48 hours. 0.1 μL capacity microcapillary tubes (Drummond Scientific NC1453214) were placed into 200 μL pipette tips (Denville Scientific P1122). 48 hours after AmB addition, the microcapillary tubes were gently touched around the edge of the apical membrane of each epithelial culture insert until completely filled with ASL via capillary action. […] The sample was then quantitatively transferred to a 15 mL capacity conical vial by washing 3 times with 50 μL molecular biology grade water.
Quantification of sodium, magnesium, potassium, and calcium was accomplished using inductively coupled plasma mass spectrometry (ICP-MS) of acidified samples. […] Quantitative standards were made using a mixed Na, Mg, K, and Ca standard at 100 μg/mL of each element (Inorganic Ventures, Christiansburg, VA, USA) which were combined to create a 100 ng/mL mixed element standard in 1.0% nitric acid (v/v). […]

[4] = tested on: protein ion channel-deficient yeast; conditions: cited from earlier work
[5] = in vivo; cited from earlier work
[6] = aerosolized / nebulized; cited from earlier work

C[C@@H]1[C@H](O)[C@@H](C)/C=C/C=C/C=C/C=C/C=C/C=C/C=C/[C@H](O[C@@H]2O[C@H](C)[C@@H](O)[C@H](N)[C@@H]2O)C[C@@H]2O[C@](O)(C[C@@H](O)C[C@@H](O)[C@H](O)CC[C@@H](O)C[C@@H](O)CC(=O)O[C@H]1C)C[C@H](O)[C@H]2C(=O)O [AmB, amphotericin B]
ASL pH, basolateral addition of AmB ([1]; AmB 2 μM basolateral, 48 h): an increase in ASL pH was not observed; also recorded: No increase in pH was observed; also recorded: did not raise ASL pH or increase H^14CO3^− secretion | ASL pH, apical addition ([1]; AmB or C35deOAmB 2 μM, ivacaftor/forskolin 10 μM, 2 h, vs vehicle): increases ASL pH relative to an untreated CuFi-1 control over 2 hours; also recorded: progressive increase in pH over 2 hours; also recorded: increased the ASL pH; also recorded: increased both; also recorded: progressively increased ASL pH over 2 hours | time for which the increase in ASL pH is sustained ([1]; apical AmB 2 μM): at least 48 hours | AmB concentration at which increase in ASL pH reaches a maximum ([1]; apical addition): 2 μM | concentration dependence of ASL pH increase ([1]; increasing concentrations up to 100 μM AmB): increases ASL pH in CuFi-1 monolayers at low but not at high concentrations; also recorded: decreases at higher concentrations; also recorded: ASL pH increased and then fell with progressively increasing concentrations of AmB | increase in ASL pH ([2]; AmB 2 μM, ivacaftor/forskolin 10 μM): ~0.2 unit | ASL pH ([2]; apical AmB 2 μM 48 h, ivacaftor/forskolin 10 μM 2 h): increase ASL pH; also recorded: increased the ASL pH; also recorded: increased ASL pH and H^14CO3^− secretion | membrane integrity / transepithelial electrical resistance (Rt) (CuFi-1 epithelia): did not disrupt membrane integrity; also recorded: no difference in transepithelial electrical resistance; also recorded: did not differ between treatment with vehicle or increasing doses of AmB | ASL cation concentrations [3]: unchanged as compared to vehicle-treated controls; also recorded: do not alter major cation concentrations in the ASL | range of doses for which yeast growth rescue is observed ([4]; AmB pre-complexed with ergosterol): extended by more than an order of magnitude | yeast growth rescue [4]: can restore growth in protein ion channel-deficient yeast; also recorded: restores potassium transport and thus growth in yeast missing the potassium-selective Trk transporters | toxicity to humans [5]: significant toxicity to humans | safety of delivery to the lungs [6]: safely delivered to the lungs in aerosolized form
